Measured values as given in ChEMBL document CHEMBL1201862, “PubChem BioAssay data set” (2004).
Activity calls are given as the source filed them.

What was measured:
[1] = biological target: Dual specificity protein phosphatase 3 (Homo sapiens, UniProt P51452); test: SAR VHR1 Fluorescent Assay for In Vitro dose response studies Set 2. [Related pubchem assays (depositor defined):AID1654, AID1661, AID1878]; type: functional
[2] = biological target: T1, Tyrosine-protein phosphatase non-receptor type 7 (Homo sapiens, UniProt P35236); test: SAR analysis of chemical inhibitors of HePTP using a Fluorescent assay - Set 2. [Related pubchem assays (depositor defined):AID1059, AID1077, AID1661, AID2085, AID521]; type: functional
T1 sequence (P35236 whole entry): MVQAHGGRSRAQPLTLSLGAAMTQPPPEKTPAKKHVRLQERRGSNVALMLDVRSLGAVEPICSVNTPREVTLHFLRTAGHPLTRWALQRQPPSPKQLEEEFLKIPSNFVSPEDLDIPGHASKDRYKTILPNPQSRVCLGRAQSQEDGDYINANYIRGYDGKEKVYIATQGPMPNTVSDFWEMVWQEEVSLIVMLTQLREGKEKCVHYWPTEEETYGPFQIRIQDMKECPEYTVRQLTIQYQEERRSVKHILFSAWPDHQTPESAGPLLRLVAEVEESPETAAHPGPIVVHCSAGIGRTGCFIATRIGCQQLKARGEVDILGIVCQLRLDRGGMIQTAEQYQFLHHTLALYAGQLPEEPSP

[3] = system: HeLa; test: Cytotoxicity counterscreen assay for transcriptional activators of heat shock protein 70 (Hsp70). [Related pubchem assays: 1203, 1252 ]; type: functional; conditions: Homo sapiens;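 note: cells exposed to compound for 16 hours before readout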
[4] = biological target: T2, Alkaline phosphatase, tissue-nonspecific isozyme (Homo sapiens, UniProt P05186)
T2 sequence (P05186 whole entry): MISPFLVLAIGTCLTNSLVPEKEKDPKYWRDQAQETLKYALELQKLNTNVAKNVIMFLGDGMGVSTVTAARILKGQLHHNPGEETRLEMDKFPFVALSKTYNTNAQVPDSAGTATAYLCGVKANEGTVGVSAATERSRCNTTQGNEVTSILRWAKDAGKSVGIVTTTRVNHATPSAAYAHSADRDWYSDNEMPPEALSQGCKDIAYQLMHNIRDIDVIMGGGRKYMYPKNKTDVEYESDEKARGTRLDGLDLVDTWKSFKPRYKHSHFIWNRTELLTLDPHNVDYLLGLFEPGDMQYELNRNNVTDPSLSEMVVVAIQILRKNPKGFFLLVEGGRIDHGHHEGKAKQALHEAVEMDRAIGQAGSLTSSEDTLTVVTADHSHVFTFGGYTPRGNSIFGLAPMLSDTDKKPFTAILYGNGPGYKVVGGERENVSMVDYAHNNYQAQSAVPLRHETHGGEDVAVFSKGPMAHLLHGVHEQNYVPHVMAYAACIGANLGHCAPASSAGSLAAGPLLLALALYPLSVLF

[5] = biological target: G-protein coupled receptor 35 (Homo sapiens, UniProt Q9HC97); test: GPR35 antagonists blocking zaprinast-driven arrestin recruitment, primary screen, imaging, U2OS, beta-arrestin-GFP, zaprinast agonist (AID 2058); type: functional;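 note: antagonist potency meaning inhibition of agonist-induced arrestin redistribution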
[6] = biological target: Acyl-homoserine lactone acylase PvdQ (Pseudomonas aeruginosa (strain LESB58), UniProt Q9I194); test: P. aeruginosa PvdQ acylase inhibitors, dose response, biochemical, fluorescence, plate reader and imaging, cherry-picks (AID 493231)
[7] = system: H9c2; test: cells; type: functional, cell-based; conditions: Rattus norvegicus, H9c2, Myocardium;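 note: confirmatory concentration-response retest of ultra-high-throughput screening hits for modulation of myocardial damage; cell death induced by hydrogen peroxide oxidative stress; compound pretreatment for 60 min then peroxide exposure for 2 h; potency is for protecting the cells against peroxide damage rather than for killing them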
[8] = biological target: Cytochrome P450 2C9 (Homo sapiens, UniProt P11712)
[9] = system: INS1; test: beta cell apoptosis inhibitors, cytokine rescue, dose response, luminescence, retest (AID 449756); type: functional, cell-based; conditions: Rattus norvegicus;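 note: cell death triggered by IL-1 beta plus TNF-alpha plus IFN-gamma mixture; protective hits raise ATP signal compared with cytokine alone wells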
[10] = biological target: Lysosomal acid glucosylceramidase (Homo sapiens, UniProt P04062); test: Dose response cell-based high throughput screening assay to identify enhancers of beta-glucosidase activity. [Related pubchem assays: 784 ]; type: functional
[11] = biological target: Mu-type opioid receptor (Homo sapiens, UniProt P35372); test: (§1) Counterscreen for agonists of heterodimerization of the mu 1 (OPRM1) and delta 1 (OPRD1) opioid receptors: Luminescence-based cell-based high throughput dose response assay to identify agonists of OPRM1 homodimerization.; type: functional
[12] = biological target: 5-hydroxytryptamine receptor 5A (Homo sapiens, UniProt P47898); test: Counterscreen for agonists of OPRM1-OPRD1 heterodimerization: luminescence-based cell-based high throughput dose response assay to identify agonists of 5-hydroxytryptamine (serotonin) 5A receptor (HTR5A). [Related pubchem assays (depositor defined):AID504326, AID504355, AID504692, AID504904, AID504905]; type: functional
[13] = biological target: T3, Short transient receptor potential channel 4 (Mus musculus, UniProt Q9QUQ5); test: mouse TRPC4 channel inhibitors, dose response, cell-based, HEK293 TRPC4/mu-opioid, Fluo-4 calcium (AID 434942); type: functional;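 note: potency of inhibitors blocking the TRPC4 calcium response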
T3 sequence (Q9QUQ5 whole entry): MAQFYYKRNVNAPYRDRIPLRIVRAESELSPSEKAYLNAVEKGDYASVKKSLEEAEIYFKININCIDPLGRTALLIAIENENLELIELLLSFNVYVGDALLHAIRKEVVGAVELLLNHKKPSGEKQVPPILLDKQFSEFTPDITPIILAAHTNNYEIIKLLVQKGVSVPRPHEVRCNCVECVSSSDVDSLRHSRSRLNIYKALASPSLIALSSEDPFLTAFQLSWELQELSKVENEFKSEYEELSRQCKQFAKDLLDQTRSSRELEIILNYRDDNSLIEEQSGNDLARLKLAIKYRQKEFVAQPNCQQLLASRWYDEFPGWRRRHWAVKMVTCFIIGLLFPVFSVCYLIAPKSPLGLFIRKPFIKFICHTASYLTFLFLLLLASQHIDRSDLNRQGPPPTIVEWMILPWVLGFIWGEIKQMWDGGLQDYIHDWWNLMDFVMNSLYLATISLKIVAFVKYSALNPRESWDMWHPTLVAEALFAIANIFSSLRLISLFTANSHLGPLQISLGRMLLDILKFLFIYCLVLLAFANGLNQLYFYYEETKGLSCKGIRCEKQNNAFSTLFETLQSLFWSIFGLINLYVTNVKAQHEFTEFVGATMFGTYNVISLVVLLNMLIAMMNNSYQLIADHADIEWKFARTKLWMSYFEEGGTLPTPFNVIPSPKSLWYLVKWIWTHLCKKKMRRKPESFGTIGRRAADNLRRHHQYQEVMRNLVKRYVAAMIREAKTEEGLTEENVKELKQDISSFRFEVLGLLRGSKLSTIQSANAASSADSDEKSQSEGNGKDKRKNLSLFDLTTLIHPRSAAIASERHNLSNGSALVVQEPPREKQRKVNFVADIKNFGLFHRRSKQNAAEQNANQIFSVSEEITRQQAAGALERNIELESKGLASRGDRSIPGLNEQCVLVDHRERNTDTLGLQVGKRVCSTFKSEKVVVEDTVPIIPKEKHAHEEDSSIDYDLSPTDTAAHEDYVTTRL

[14] = biological target: Bcl-2-like protein 10 (Homo sapiens, UniProt Q9HD36); test: displacers of TR3 peptide from Bcl-B, primary screen, selectivity assay for Bfl-1 inhibitor project, biochemical, fluorescence polarization, FITC-TR3 peptide (AID 748);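 note: fluorescence polarization from a fluorescein-labelled TR3 peptide binding purified Bcl-B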
[15] = biological target: Nonstructural protein 1 (Influenza A virus, UniProt Q194T2); type: functional, Influenza A virus (A/California/07/2009(H1N1))
[16] = biological target: Delta-type opioid receptor (Homo sapiens, UniProt P41143); test: as §1, with “of OPRD1” for “of OPRM1”, “homodimerization. [Related pubchem assays (depositor defined):AID504326, AID504355, AID504692, AID504904, AID504905]” for “homodimerization.”; type: functional
[17] = biological target: T4, Estrogen receptor (Homo sapiens, UniProt P03372);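 note: potency for inhibiting coactivator peptide recruitment to the receptor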
T4 sequence (P03372 whole entry): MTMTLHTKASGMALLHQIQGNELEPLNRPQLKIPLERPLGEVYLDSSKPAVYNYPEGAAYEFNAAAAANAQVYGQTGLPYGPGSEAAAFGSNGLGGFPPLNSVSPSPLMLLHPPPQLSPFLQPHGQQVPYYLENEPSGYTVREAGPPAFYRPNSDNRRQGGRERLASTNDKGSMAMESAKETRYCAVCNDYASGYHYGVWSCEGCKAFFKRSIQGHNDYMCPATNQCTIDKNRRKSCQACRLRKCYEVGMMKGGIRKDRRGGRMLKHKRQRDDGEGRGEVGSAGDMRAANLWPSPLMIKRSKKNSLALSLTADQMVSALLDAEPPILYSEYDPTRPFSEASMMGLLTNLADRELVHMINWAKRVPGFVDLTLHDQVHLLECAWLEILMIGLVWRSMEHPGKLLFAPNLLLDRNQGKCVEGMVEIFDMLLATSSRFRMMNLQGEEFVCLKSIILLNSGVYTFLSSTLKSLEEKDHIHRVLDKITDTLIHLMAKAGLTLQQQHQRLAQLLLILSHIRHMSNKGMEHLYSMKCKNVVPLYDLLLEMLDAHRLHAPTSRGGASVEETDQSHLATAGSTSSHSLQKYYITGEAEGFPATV

[18] = biological target: T5, Estrogen receptor beta (Homo sapiens, UniProt Q92731);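 note: recombinant ER-beta bound to coactivator SRC1 peptide in presence of estradiol agonist; inhibitors block coactivator peptide binding and lower the FRET signal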
[19] = biological target: T5, Estrogen receptor beta; test: ERβ–SRC-3 coactivator interaction inhibitors, confirmation, orthogonal assay, biochemical, ELISA, streptavidin-HRP readout (AID 1060)
[20] = human group III sPLA2 inhibitors, dose response, biochemical, QFRET, IC50 (AID 743457);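 note: green fluorescence rise as the enzyme cleaves BODIPY PC-A2 in liposomes; potency for inhibition of the enzyme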
[21] = Luminescence Cell-Based Dose Response HTS to Identify Activators of Luciferase Translation or Activity in H4 […] Cells. [Related pubchem assays: 1829 (Project Summary), 1814 (Primary HTS)]; type: functional
[22] = system: H4; test: Luminescence Cell-Based Dose Response HTS to Identify Activators of 5'UTR Stem-Loop Driven Prion Protein mRNA Translation in H4 Neuroglioblastoma Cells. [Related pubchem assays: 1829 (Project Summary), 1814 (Primary HTS)]; type: functional; conditions: Homo sapiens
[23] = biological target: Alkaline phosphatase, placental type (Homo sapiens, UniProt P05187); test: PLAP enzyme inhibitors, confirmation, biochemical, luminescence (AID 1512); type: functional
[24] = Luminescence Cell-Based Dose Confirmation HTS to Identify Activators of 5'UTR Stem-Loop Driven Alpha-Synuclein mRNA Translation in H4 Neuroglioblastoma Cells. [Related pubchem assays: 1829 (Project Summary), 1814 (Primary HTS)]; type: functional
[25] = A549 cell cytotoxicity, dose response, cytotoxicity control, plate reader, cherry-pick, antagonist series (AID 743412); type: functional, cell-based
[26] = LGR2 antagonists, dose response, cell-based, HEK293, CRE-luciferase reporter, cherry pick, set 2 (AID 743343); type: functional;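 note: transfected cells were stimulated with diluted bursicon conditioned medium after compound addition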
[27] = inhibitors of SNCA 5'UTR-driven reporter translation, confirmation, H4 neuroglioma cells, luminescence (AID 1988); type: functional, cell-based
[28] = HEK293 cell cytotoxicity, dose response, cytotoxicity control, plate reader, cherry-picked samples (AID 743446); type: functional, cell-based
[29] = Luminescence Cell-Based Dose Response HTS to Identify Inhibitors of 5'UTR Stem-Loop Driven Prion Protein mRNA Translation in H4 Neuroglioblastoma Cells. [Related pubchem assays: 1827 (Project Summary), 1813 (Primary HTS)]; type: functional
[30] = system: HEK293; test: inhibitors of LMP1-driven NF-kB reporter, dose response, cell-based, HEK293, luciferase, cherry-pick (AID 588343); type: functional; conditions: Homo sapiens
[31] = HepG2 cell cytotoxicity, dose response, cytotoxicity control, plate reader, cherry-pick, antagonist series (AID 743416); type: functional, cell-based
[32] = MC4R antagonists, dose response, counter-screen for LGR2 antagonist project, cell-based, plate reader, cherry pick (AID 743444); type: functional;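 note: transfected HEK 293 cells stimulated with alpha-MSH peptide; potency of inhibitors of the alpha-MSH evoked signal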
[33] = biological target: FAD-linked sulfhydryl oxidase ALR (Homo sapiens, UniProt P55789); test: inhibitors of human ALR sulfhydryl oxidase, dose response, biochemical, H2O2 detection, luminescence, cherry-pick (AID 493248)
FAD-linked sulfhydryl oxidase ALR, sequence (P55789 whole entry): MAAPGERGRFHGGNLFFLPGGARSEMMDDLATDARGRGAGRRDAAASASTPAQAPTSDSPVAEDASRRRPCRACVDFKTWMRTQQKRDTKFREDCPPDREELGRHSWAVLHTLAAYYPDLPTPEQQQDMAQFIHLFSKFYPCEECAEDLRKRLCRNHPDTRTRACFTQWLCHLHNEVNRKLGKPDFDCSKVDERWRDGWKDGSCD

T5 sequence (Q92731 whole entry): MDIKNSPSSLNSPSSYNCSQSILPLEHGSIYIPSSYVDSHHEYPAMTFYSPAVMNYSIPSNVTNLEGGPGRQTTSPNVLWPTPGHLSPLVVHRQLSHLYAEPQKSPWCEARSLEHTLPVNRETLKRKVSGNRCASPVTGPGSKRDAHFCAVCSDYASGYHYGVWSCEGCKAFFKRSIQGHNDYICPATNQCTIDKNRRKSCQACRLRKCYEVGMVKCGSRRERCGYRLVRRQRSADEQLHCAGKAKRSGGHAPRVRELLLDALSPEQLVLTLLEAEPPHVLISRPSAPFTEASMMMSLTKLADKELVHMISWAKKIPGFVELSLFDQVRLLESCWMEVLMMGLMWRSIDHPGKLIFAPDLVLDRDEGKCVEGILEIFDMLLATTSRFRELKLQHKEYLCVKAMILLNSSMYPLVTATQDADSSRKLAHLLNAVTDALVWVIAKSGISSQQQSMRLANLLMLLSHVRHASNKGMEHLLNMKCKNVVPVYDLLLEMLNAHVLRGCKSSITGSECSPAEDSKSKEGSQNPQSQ
Lysosomal acid glucosylceramidase, sequence (P04062 whole entry): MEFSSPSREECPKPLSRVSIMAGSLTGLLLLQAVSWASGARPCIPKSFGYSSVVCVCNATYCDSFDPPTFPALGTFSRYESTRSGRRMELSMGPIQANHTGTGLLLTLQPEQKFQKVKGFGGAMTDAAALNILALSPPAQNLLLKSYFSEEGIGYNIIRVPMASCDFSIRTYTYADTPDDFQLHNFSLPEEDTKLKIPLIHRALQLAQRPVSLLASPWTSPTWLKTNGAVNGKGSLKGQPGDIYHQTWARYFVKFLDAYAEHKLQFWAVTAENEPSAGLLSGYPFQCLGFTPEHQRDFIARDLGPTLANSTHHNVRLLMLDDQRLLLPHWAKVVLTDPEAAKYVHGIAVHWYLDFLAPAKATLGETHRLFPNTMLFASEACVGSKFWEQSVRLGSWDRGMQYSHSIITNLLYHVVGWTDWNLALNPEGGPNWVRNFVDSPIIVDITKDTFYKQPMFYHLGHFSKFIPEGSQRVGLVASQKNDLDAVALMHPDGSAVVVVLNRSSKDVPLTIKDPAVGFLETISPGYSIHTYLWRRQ
Acyl-homoserine lactone acylase PvdQ, sequence (Q9I194 24-193 limits assumed): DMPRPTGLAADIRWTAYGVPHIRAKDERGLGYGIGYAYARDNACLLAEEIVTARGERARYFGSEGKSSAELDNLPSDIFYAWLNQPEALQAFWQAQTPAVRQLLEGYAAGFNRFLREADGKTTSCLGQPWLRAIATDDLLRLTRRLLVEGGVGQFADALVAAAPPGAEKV
Acyl-homoserine lactone acylase PvdQ, sequence (Q9I194 217-762 limits assumed): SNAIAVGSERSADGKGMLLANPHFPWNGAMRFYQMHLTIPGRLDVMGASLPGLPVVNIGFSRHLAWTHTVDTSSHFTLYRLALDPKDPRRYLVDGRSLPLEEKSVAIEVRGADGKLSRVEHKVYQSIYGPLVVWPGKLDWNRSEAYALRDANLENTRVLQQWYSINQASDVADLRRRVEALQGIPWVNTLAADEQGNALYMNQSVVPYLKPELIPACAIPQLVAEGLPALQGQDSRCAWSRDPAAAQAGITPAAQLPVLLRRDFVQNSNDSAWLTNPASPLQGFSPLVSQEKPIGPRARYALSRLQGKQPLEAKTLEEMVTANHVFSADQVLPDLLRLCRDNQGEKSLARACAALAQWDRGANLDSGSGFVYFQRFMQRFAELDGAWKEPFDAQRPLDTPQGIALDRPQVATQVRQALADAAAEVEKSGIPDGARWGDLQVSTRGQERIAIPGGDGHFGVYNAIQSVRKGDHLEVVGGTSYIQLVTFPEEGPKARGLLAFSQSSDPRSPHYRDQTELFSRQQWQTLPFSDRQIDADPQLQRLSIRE
Dual specificity protein phosphatase 3, sequence (P51452 whole entry): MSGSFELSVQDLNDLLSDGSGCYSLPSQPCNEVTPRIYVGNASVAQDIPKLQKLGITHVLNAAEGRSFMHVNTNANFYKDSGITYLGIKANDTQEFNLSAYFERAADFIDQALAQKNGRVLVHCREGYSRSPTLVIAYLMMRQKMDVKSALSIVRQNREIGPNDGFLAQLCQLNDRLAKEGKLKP
Bcl-2-like protein 10, sequence (Q9HD36 whole entry): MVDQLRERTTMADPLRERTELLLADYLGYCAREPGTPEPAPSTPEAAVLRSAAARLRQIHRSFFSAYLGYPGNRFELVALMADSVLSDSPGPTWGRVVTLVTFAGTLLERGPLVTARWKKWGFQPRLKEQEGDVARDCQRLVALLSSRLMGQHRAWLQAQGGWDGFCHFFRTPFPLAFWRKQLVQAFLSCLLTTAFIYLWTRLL
Delta-type opioid receptor, sequence (P41143 whole entry): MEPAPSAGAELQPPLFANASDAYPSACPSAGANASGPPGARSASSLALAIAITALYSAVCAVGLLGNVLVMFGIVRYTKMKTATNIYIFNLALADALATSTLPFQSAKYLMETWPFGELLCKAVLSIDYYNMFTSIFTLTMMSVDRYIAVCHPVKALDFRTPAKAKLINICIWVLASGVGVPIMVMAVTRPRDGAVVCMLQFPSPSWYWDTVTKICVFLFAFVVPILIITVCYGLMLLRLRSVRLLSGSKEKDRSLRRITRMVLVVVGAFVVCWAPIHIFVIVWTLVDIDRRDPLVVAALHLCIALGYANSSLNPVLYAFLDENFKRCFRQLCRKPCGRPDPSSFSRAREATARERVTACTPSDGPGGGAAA
G-protein coupled receptor 35, sequence (Q9HC97 whole entry): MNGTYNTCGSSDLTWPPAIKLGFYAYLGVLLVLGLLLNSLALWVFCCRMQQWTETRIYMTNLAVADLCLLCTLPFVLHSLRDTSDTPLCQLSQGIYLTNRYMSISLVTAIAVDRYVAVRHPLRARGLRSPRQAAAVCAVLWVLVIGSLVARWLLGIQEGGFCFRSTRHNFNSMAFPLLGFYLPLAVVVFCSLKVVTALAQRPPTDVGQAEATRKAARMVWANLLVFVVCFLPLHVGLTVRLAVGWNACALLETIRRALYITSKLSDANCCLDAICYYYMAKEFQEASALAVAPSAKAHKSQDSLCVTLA
5-hydroxytryptamine receptor 5A, sequence (P47898 whole entry): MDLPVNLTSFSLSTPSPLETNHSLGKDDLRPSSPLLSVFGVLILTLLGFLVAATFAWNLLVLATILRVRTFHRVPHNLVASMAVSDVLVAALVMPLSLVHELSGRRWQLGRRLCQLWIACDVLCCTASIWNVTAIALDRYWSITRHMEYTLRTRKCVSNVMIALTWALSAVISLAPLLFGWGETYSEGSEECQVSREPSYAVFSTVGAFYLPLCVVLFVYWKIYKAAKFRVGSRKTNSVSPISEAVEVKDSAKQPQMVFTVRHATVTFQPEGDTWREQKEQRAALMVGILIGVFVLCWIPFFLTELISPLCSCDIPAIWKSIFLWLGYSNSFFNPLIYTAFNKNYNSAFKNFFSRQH
Mu-type opioid receptor, sequence (P35372 whole entry): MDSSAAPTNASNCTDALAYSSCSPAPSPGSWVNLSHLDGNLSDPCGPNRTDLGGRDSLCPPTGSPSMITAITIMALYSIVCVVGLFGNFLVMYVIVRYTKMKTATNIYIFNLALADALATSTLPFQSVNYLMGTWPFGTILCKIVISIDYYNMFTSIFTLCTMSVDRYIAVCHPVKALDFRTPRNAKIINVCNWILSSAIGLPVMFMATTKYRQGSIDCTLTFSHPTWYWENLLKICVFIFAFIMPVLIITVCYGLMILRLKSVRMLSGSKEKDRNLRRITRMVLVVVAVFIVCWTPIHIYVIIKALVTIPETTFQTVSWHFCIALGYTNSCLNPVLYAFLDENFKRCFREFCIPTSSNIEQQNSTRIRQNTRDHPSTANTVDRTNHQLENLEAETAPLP
Cytochrome P450 2C9, sequence (P11712 whole entry): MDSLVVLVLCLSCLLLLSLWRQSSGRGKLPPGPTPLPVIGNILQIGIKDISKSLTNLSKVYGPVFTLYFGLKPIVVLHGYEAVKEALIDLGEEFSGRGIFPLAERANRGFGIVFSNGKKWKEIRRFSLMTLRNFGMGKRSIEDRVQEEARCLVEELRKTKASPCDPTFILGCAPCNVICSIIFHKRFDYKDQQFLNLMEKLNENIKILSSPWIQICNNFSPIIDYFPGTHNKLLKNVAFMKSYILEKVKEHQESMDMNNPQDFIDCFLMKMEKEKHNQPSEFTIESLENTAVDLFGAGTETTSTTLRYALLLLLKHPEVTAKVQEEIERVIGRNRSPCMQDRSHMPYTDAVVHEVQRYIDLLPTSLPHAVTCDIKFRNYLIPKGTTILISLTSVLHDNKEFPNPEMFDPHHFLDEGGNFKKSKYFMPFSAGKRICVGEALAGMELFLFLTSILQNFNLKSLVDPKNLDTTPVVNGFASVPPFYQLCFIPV
Alkaline phosphatase, placental type, sequence (P05187 whole entry): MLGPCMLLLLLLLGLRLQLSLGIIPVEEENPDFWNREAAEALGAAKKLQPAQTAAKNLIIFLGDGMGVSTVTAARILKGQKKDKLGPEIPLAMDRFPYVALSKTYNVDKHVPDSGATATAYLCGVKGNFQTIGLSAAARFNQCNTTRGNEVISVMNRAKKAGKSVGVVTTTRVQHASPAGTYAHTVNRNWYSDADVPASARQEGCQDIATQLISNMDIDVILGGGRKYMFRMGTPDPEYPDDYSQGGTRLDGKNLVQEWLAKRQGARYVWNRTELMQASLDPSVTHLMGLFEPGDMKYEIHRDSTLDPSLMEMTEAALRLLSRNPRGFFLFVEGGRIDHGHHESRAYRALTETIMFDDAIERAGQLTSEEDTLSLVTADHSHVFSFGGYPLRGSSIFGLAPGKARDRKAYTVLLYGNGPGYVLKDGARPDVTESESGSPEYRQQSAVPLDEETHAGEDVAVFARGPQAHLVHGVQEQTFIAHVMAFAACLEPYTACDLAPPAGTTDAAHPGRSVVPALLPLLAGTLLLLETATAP

Structure (SMILES): COc1ccc(OC)c(C(=S)NCc2ccc(F)c(C(F)(F)F)c2)c1
- IC50 [1]: 60.8 µM (active)
- IC50 [2]: 15.5 µM (active)

Structure (SMILES): O=C1NC(=O)C2(COC3(CCCC3)OC2)S1
- CC50 [3]: > 99 µM (not active)

Structure (SMILES): O=C(NCc1ccccc1)NC1(C(=O)N2CCN(c3ccccc3)CC2)CCCCC1
- EC50 [4]: > 100 µM (not active)

Structure (SMILES): CN(C)c1ccc(/C=C2\NC(=S)N(Cc3ccccc3)C2=O)cc1
- IC50 [5]: 0.651 µM (active)

Structure (SMILES): COc1ccc(CNCc2cccc(Cl)c2)cc1
- AC50 [6]: 6.75 µM (active)

Structure (SMILES): Cc1ccc2c(C)nc(Nc3nc(O)cc(CSc4nc5ccccc5[nH]4)n3)nc2c1
- IC50 [7]: > 79 µM (inactive)
- AC50 [8]: 0.1 µM (inconclusive)
- AC50 [9]: 61.7 µM (active)
- EC50 [4]: 82.2 µM (not active)

Structure (SMILES): O=C1CC(=O)N(c2ccc3c(c2)OCO3)C(=O)N1
- EC50 [10]: > 50 µM (not active)

Structure (SMILES): N#CCN(N=Nc1ccccc1)c1ccccc1
- AC50 [6]: 9.41 µM (active)

Structure (SMILES): CC(=O)Nc1ccc(S(=O)(=O)NC2=C(N3CCN(Cc4ccccc4)CC3)C(=O)c3ccccc3C2=O)cc1
- EC50 [11]: > 92.4 µM (inactive)
- EC50 [12]: > 92.4 µM (inactive)
- EC50 [13]: 1.06 µM (active)
- IC50 [14]: 77.9 µM (inactive)
- IC50 [15]: 21.4 µM (active)
- EC50 [16]: > 92.4 µM (inactive)

Structure (SMILES): COc1ccc(Cl)cc1NC(=O)c1ocnc1C
- IC50 [17]: 24.9 µM (active)
- IC50 [18]: 8.77 µM (active)
- IC50 [19]: > 109 µM (not active)

Structure (SMILES): Cc1ccc(NC(S)=NNC(=O)c2nn(C)c(C)c2Cl)cc1
- IC50 [1]: > 100 µM (inactive)
- IC50 [20]: > 122 µM (inactive)
- EC50 [21]: 12 µM (active)
- EC50 [22]: 10.9 µM (active)
- IC50 [2]: > 100 µM (inactive)
- IC50 [23]: > 100 µM (inactive)
- EC50 [24]: 6.19 µM (active)

Structure (SMILES): CN(C)c1ccc(-c2nc3ccccc3n2C)cc1
- AC50 [25]: 38.2 µM (active)
- AC50 [26]: 4.7 µM (active)
- EC50 [27]: 7.88 µM (active)
- AC50 [28]: 32.2 µM (active)
- EC50 [29]: 12.7 µM (active)
- AC50 [30]: 2.11 µM (active)
- AC50 [31]: > 52 µM (inactive)
- EC50 [10]: > 50 µM (not active)
- AC50 [32]: 4.64 µM (active)
- AC50 [33]: 6.13 µM (active)
